pIC50: −log10 of the molar value.
Test system: HOP-62 complex spheroids with HUVEC/MSC, viability
Experiment: Anticancer human tumor HOP-62 cell line growth inhibition [RAS];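 note: spheroids exposed to agents for seven days before readout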;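 for viability, T/C: 100% = DMSO vehicle control viability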
Settings: for pIC50: curve of first compound; for viability, T/C: stronger effect = lower value
Outline: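 Multi-cell-type spheroids: tumor cells plus HUVEC endothelial cells and mesenchymal stem cells. RAS-pathway inhibitors were combined with targeted agents, each dosed in half-log steps down from clinical Cmax, or from 10 microM when Cmax was unknown.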

[1] = second compound 0.0316 µM, first compound 0.0316 µM
[2] = second compound 0.0316 µM, first compound 0.1 µM
[3] = second compound 0.0316 µM, first compound 0.316 µM
[4] = second compound 0.0316 µM, first compound 1 µM
[5] = second compound 0.1 µM, first compound 0.0316 µM
[6] = second compound 0.1 µM, first compound 0.1 µM
[7] = second compound 0.1 µM, first compound 0.316 µM
[8] = second compound 0.1 µM, first compound 1 µM
[9] = second compound 0.316 µM, first compound 0.0316 µM
[10] = second compound 0.316 µM, first compound 0.1 µM
[11] = second compound 0.316 µM, first compound 0.316 µM
[12] = second compound 0.316 µM, first compound 1 µM
[13] = second compound 1 µM, first compound 0.0316 µM
[14] = second compound 1 µM, first compound 0.1 µM
[15] = second compound 1 µM, first compound 0.316 µM
[16] = second compound 1 µM, first compound 1 µM
[17] = second compound 3.16 µM, first compound 0.0316 µM
[18] = second compound 3.16 µM, first compound 0.1 µM
[19] = second compound 3.16 µM, first compound 0.316 µM
[20] = second compound 3.16 µM, first compound 1 µM
[21] = second compound 10 µM, first compound 0.0316 µM
[22] = second compound 10 µM, first compound 0.1 µM
[23] = second compound 10 µM, first compound 0.316 µM
[24] = second compound 10 µM, first compound 1 µM

Compound: CCC(CC)c1cc(NC2CCC(N)C2)n2nccc2n1 (stereo unspecified) + C#Cc1c(F)ccc2cc(O)cc(-c3ncc4c(N5CC6CCC(C5)N6)nc(OCC56CCCN5CC(F)C6)nc4c3F)c12
- pIC50 (second compound 0.0316 µM): 5.78
- pIC50 (second compound 0.1 µM): 5.73
- pIC50 (second compound 0.316 µM): 5.74
- pIC50 (second compound 1 µM): 5.76
- pIC50 (second compound 3.16 µM): 5.81
- pIC50 (second compound 10 µM): 5.95
- viability, T/C [1]: 108%
- viability, T/C [2]: 111%
- viability, T/C [3]: 107%
- viability, T/C [4]: 88.2%
- viability, T/C (second compound 0.0316 µM, first compound 3.16 µM): 0.7%
- viability, T/C (second compound 0.0316 µM, first compound 10 µM): 0.37%
- viability, T/C [5]: 112%
- viability, T/C [6]: 115%
- viability, T/C [7]: 118%
- viability, T/C [8]: 107%
- viability, T/C (second compound 0.1 µM, first compound 3.16 µM): 1.36%
- viability, T/C (second compound 0.1 µM, first compound 10 µM): 1.21%
- viability, T/C [9]: 122%
- viability, T/C [10]: 105%
- viability, T/C [11]: 111%
- viability, T/C [12]: 101%
- viability, T/C (second compound 0.316 µM, first compound 3.16 µM): 0.69%
- viability, T/C (second compound 0.316 µM, first compound 10 µM): 0.93%
- viability, T/C [13]: 108%
- viability, T/C [14]: 104%
- viability, T/C [15]: 99.9%
- viability, T/C [16]: 96.7%
- viability, T/C (second compound 1 µM, first compound 3.16 µM): 0.48%
- viability, T/C (second compound 1 µM, first compound 10 µM): 0.25%
- viability, T/C [17]: 83.7%
- viability, T/C [18]: 90.8%
- viability, T/C [19]: 88.3%
- viability, T/C [20]: 79.5%
- viability, T/C (second compound 3.16 µM, first compound 3.16 µM): 0.74%
- viability, T/C (second compound 3.16 µM, first compound 10 µM): 1.33%
- viability, T/C [21]: 48.1%
- viability, T/C [22]: 47.3%
- viability, T/C [23]: 56%
- viability, T/C [24]: 70.2%
- viability, T/C (second compound 10 µM, first compound 3.16 µM): 0.95%
- viability, T/C (second compound 10 µM, first compound 10 µM): 0.56%

Compound: O=C(c1ccc(F)c(F)c1Nc1ccc(I)cc1F)N1CC(O)([C@@H]2CCCCN2)C1 + C#Cc1c(F)ccc2cc(O)cc(-c3ncc4c(N5CC6CCC(C5)N6)nc(OCC56CCCN5CC(F)C6)nc4c3F)c12
- pIC50 (second compound 0.0316 µM): 6.91
- pIC50 (second compound 0.1 µM): 6.83
- pIC50 (second compound 0.316 µM): 6.85
- pIC50 (second compound 1 µM): 6.97
- pIC50 (second compound 3.16 µM): 7.38
- pIC50 (second compound 10 µM): > 8.50
- viability, T/C (second compound 0.0316 µM, first compound 0.00316 µM): 107%
- viability, T/C (second compound 0.0316 µM, first compound 0.01 µM): 113%
- viability, T/C [1]: 97.3%
- viability, T/C [2]: 54.2%
- viability, T/C [3]: 30.8%
- viability, T/C [4]: 25.2%
- viability, T/C (second compound 0.1 µM, first compound 0.00316 µM): 112%
- viability, T/C (second compound 0.1 µM, first compound 0.01 µM): 114%
- viability, T/C [5]: 90.2%
- viability, T/C [6]: 61%
- viability, T/C [7]: 31.3%
- viability, T/C [8]: 24%
- viability, T/C (second compound 0.316 µM, first compound 0.00316 µM): 113%
- viability, T/C (second compound 0.316 µM, first compound 0.01 µM): 108%
- viability, T/C [9]: 88.3%
- viability, T/C [10]: 58.1%
- viability, T/C [11]: 32.2%
- viability, T/C [12]: 26.8%
- viability, T/C (second compound 1 µM, first compound 0.00316 µM): 96.7%
- viability, T/C (second compound 1 µM, first compound 0.01 µM): 95.7%
- viability, T/C [13]: 82%
- viability, T/C [14]: 50.1%
- viability, T/C [15]: 33.2%
- viability, T/C [16]: 25.3%
- viability, T/C (second compound 3.16 µM, first compound 0.00316 µM): 73.6%
- viability, T/C (second compound 3.16 µM, first compound 0.01 µM): 63.6%
- viability, T/C [17]: 56.3%
- viability, T/C [18]: 36.5%
- viability, T/C [19]: 22.3%
- viability, T/C [20]: 18.3%
- viability, T/C (second compound 10 µM, first compound 0.00316 µM): 46.4%
- viability, T/C (second compound 10 µM, first compound 0.01 µM): 47.9%
- viability, T/C [21]: 32.2%
- viability, T/C [22]: 23.9%
- viability, T/C [23]: 12.5%
- viability, T/C [24]: 11.7%

Compound: CC(=O)OC12COC1CC(O)C1(C)C(=O)C(O)C3=C(C)C(OC(=O)C(O)C(NC(=O)OC(C)(C)C)c4ccccc4)CC(O)(C(OC(=O)c4ccccc4)C21)C3(C)C (stereo unspecified) + CCn1c(-c2cccnc2C(C)OC)c2c3cc(ccc31)N1CCOC(CC(NC(=O)C(C(C)C)N(C)C(=O)C3(F)CCN(C(=O)C#CC(C)(C)N(C)C)CC3)C(=O)N3CCCC(N3)C(=O)OCC(C)(C)C2)C1
- pIC50 (second compound 0.000949 µM): > 7.50
- pIC50 (second compound 0.003 µM): > 7.50
- pIC50 (second compound 0.00949 µM): > 7.50
- pIC50 (second compound 0.03 µM): > 7.50
- pIC50 (second compound 0.0949 µM): > 7.50
- pIC50 (second compound 0.3 µM): > 7.50
- viability, T/C (second compound 0.000949 µM, first compound 0.0316 µM): 31%
- viability, T/C (second compound 0.000949 µM, first compound 0.1 µM): 29.6%
- viability, T/C (second compound 0.000949 µM, first compound 0.316 µM): 20.6%
- viability, T/C (second compound 0.000949 µM, first compound 1 µM): 34.7%
- viability, T/C (second compound 0.000949 µM, first compound 3.16 µM): 48.4%
- viability, T/C (second compound 0.000949 µM, first compound 10 µM): 45.6%
- viability, T/C (second compound 0.003 µM, first compound 0.0316 µM): 32.6%
- viability, T/C (second compound 0.003 µM, first compound 0.1 µM): 32.1%
- viability, T/C (second compound 0.003 µM, first compound 0.316 µM): 37%
- viability, T/C (second compound 0.003 µM, first compound 1 µM): 33.3%
- viability, T/C (second compound 0.003 µM, first compound 3.16 µM): 52.1%
- viability, T/C (second compound 0.003 µM, first compound 10 µM): 39.7%
- viability, T/C (second compound 0.00949 µM, first compound 0.0316 µM): 30.8%
- viability, T/C (second compound 0.00949 µM, first compound 0.1 µM): 31.6%
- viability, T/C (second compound 0.00949 µM, first compound 0.316 µM): 29.4%
- viability, T/C (second compound 0.00949 µM, first compound 1 µM): 36.3%
- viability, T/C (second compound 0.00949 µM, first compound 3.16 µM): 39.3%
- viability, T/C (second compound 0.00949 µM, first compound 10 µM): 43.2%
- viability, T/C (second compound 0.03 µM, first compound 0.0316 µM): 31.4%
- viability, T/C (second compound 0.03 µM, first compound 0.1 µM): 32.9%
- viability, T/C (second compound 0.03 µM, first compound 0.316 µM): 31%
- viability, T/C (second compound 0.03 µM, first compound 1 µM): 35.4%
- viability, T/C (second compound 0.03 µM, first compound 3.16 µM): 33.1%
- viability, T/C (second compound 0.03 µM, first compound 10 µM): 46.4%
- viability, T/C (second compound 0.0949 µM, first compound 0.0316 µM): 34.2%
- viability, T/C (second compound 0.0949 µM, first compound 0.1 µM): 34.1%
- viability, T/C (second compound 0.0949 µM, first compound 0.316 µM): 36.6%
- viability, T/C (second compound 0.0949 µM, first compound 1 µM): 37.3%
- viability, T/C (second compound 0.0949 µM, first compound 3.16 µM): 34.9%
- viability, T/C (second compound 0.0949 µM, first compound 10 µM): 42.1%
- viability, T/C (second compound 0.3 µM, first compound 0.0316 µM): 28.1%
- viability, T/C (second compound 0.3 µM, first compound 0.1 µM): 40.2%
- viability, T/C (second compound 0.3 µM, first compound 0.316 µM): 31.8%
- viability, T/C (second compound 0.3 µM, first compound 1 µM): 37.9%
- viability, T/C (second compound 0.3 µM, first compound 3.16 µM): 33.5%
- viability, T/C (second compound 0.3 µM, first compound 10 µM): 36.9%
